Source: US20080280952A1 (priority 2004, published 2008)

Biological target: T1, human cannabinoid CB2 receptor (Homo sapiens, UniProt P34972)
T1 construct: expressed in transfected cells; host or cells: Saccharomyces cerevisiae strain MMY23 (cassette integrated at the ura3 locus, GPD promoter)
Experiment: Cannabinoid CB2 receptor agonist activity, yeast reporter assay
Type: cell-based
Conditions: for Emax: read-out: efficacy (Emax) at the cloned human cannabinoid CB2 receptor
Protocol: The cannabinoid CB2 receptor agonist activity of the compounds of formula (I) was determined in accordance with the following experimental method.
Yeast (Saccharomyces cerevisiae) cells expressing the human cannabinoid CB2 receptor were generated by integration of an expression cassette into the ura3 chromosomal locus of yeast strain MMY23. This cassette consisted of DNA sequence encoding the human CB2 receptor flanked by the yeast GPD promoter to the 5′ end of CB2 and a yeast transcriptional terminator sequence to the 3′ end of CB2. MMY23 expresses a yeast/mammalian chimeric G-protein alpha subunit in which the C-terminal 5 amino acids of Gpa1 are replaced with the C-terminal 5 amino acids of human Gαi3 (as described in Brown et al. (2000), Yeast 16:11-22).
Agonists were prepared as 10 mM stocks in DMSO. […] Agonist solutions in DMSO (1% final assay volume) were transferred into black, clear bottom, microtitre plates from NUNC (96- or 384-well). Cells were suspended at a density of 0.2 OD600/ml in SC media lacking histidine, uracil, tryptophan, adenine and leucine and supplemented with 10 mM 3-aminotriazole, 0.1M sodium phosphate pH 7.0, and […] fluorescein di-β-D-glucopyranoside (FDGlu). […] Fluorescence was plotted against compound concentration and iteratively curve fitted using a four parameter fit to generate a concentration effect value. Efficacy (Emax) was calculated from the equation
Equieffective molar ratio (EMR) values were calculated from the equation

T1 sequence (P34972 whole entry): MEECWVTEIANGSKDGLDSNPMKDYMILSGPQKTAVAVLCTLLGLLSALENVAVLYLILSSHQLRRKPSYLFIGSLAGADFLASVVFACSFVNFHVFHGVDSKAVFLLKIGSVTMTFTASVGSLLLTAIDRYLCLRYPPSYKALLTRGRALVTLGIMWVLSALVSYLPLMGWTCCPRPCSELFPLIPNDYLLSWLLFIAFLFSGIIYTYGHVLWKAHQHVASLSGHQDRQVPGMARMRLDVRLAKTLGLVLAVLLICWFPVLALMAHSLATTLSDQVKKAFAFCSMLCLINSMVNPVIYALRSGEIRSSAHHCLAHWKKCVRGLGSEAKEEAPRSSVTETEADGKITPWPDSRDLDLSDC

Structure (SMILES)	EC50 [nM]	Emax [%]
Cc1c(Nc2cc(C3CC3)c(C(=O)NCC3CCOCC3)cn2)cccc1C(F)(F)F [Example 107, 4-Cyclopropyl-6-(2-methyl-3-trifluoromethyl-phenylamino)-N-(tetrahydro-pyran-4-ylmethyl)-nicotinamide]	300 to 1000	> 50
O=C(NCC1CCOCC1)c1cnc(Nc2cc(F)ccc2Cl)cc1C1CC1 [Example 108, 6-(2-Chloro-5-fluoro-phenylamino)-4-cyclopropyl-N-(tetrahydro-pyran-4-ylmethyl)-nicotinamide]	300 to 1000	> 50
Cc1cccc(Nc2cc(C3CC3)c(C(=O)NCC3CCOCC3)cn2)c1C#N [Example 109, 6-(2-Cyano-3-methyl-phenylamino)-4-cyclopropyl-N-(tetrahydro-pyran-4-ylmethyl)-nicotinamide]	300 to 1000	> 50
Cc1cc(Nc2cc(C3CC3)c(C(=O)NCC3CCOCC3)cn2)ccc1Br [Example 110, 6-(4-Bromo-3-methyl-phenylamino)-4-cyclopropyl-N-(tetrahydro-pyran-4-ylmethyl)-nicotinamide]	300 to 1000	> 50
Cc1ccc(Nc2cc(C3CC3)c(C(=O)NCC3CCOCC3)cn2)cc1F [Example 111, 4-Cyclopropyl-6-(3-fluoro-4-methyl-phenylamino)-N-(tetrahydro-pyran-4-ylmethyl)-nicotinamide]	300 to 1000	> 50
Cc1ccc(Nc2cc(C3CC3)c(C(=O)NCC3CCOCC3)cn2)cc1Cl [Example 112, 6-(3-Chloro-4-methyl-phenylamino)-4-cyclopropyl-N-(tetrahydro-pyran-4-ylmethyl)-nicotinamide]	300 to 1000	> 50
O=C(NCC1CCOCC1)c1cnc(Nc2ccc(F)c(F)c2)cc1C1CC1 [Example 113, 4-Cyclopropyl-6-(3,4-difluoro-phenylamino)-N-(tetrahydro-pyran-4-ylmethyl)-nicotinamide]	300 to 1000	> 50
Cc1ccc(C(F)(F)F)cc1Nc1cc(C2CC2)c(C(=O)NCC2CCOCC2)cn1 [Example 114, 4-Cyclopropyl-6-(2-methyl-5-trifluoromethyl-phenylamino)-N-(tetrahydro-pyran-4-ylmethyl)-nicotinamide]	300 to 1000	> 50
COc1cccc(Nc2cc(C3CC3)c(C(=O)NCC3CCC3)cn2)c1 [Example 115, N-Cyclobutylmethyl-4-cyclopropyl-6-(3-methoxy-phenylamino)-nicotinamide]	300 to 1000	> 50
O=C(NCC1CCC1)c1cnc(Nc2ccc(F)cc2Cl)cc1C1CC1 [Example 116]	300 to 1000	> 50
Cc1cccc(Nc2cc(C3CC3)c(C(=O)NCC3CCCC3)cn2)c1 [Example 117, N-Cyclopentylmethyl-4-cyclopropyl-6-(3-methyl-phenylamino)-nicotinamide]	300 to 1000	> 50
COc1cccc(Nc2cc(C3CC3)c(C(=O)NCC3CCCC3)cn2)c1 [Example 118, N-Cyclopentylmethyl-4-cyclopropyl-6-(3-methoxy-phenylamino)-nicotinamide]	300 to 1000	> 50
O=C(NCC1CCCC1)c1cnc(Nc2cccc(Cl)c2Cl)cc1C1CC1 [Example 119, N-Cyclopentylmethyl-4-cyclopropyl-6-(2,3-dichloro-phenylamino)-nicotinamide]	300 to 1000	> 50
O=C(NCC1CCCC1)c1cnc(Nc2ccc(C(F)(F)F)c(Cl)c2)cc1C1CC1 [Example 120, 6-(3-Chloro-4-trifluoromethyl-phenylamino)-N-cyclopentylmethyl-4-cyclopropyl-nicotinamide]	300 to 1000	> 50
N#Cc1ccc(Nc2cc(C3CC3)c(C(=O)NCC3CCOCC3)cn2)c(F)c1 [Example 121, 6-(4-Cyano-2-fluoro-phenylamino)-4-cyclopropyl-N-(tetrahydro-pyran-4-ylmethyl)-nicotinamide]	300 to 1000	> 50
O=C(NCC1CCCC1)c1cnc(Nc2cccc(F)c2F)cc1C1CC1 [Example 122, N-Cyclopentylmethyl-4-cyclopropyl-6-(2,3-difluoro-phenylamino)-nicotinamide]	300 to 1000	> 50
O=C(NCC1CCC1)c1cnc(Nc2ccc(F)c(C(F)(F)F)c2)cc1C1CC1 [Example 123, N-Cyclobutylmethyl-4-cyclopropyl-6-(4-fluoro-3-trifluoromethyl-phenylamino)-nicotinamide]	300 to 1000	> 50
O=C(NCC1CCOCC1)c1ccc(Nc2cccc(Cl)c2)nc1C1CC1 [Example 124, 6-(3-Chloro-phenylamino)-2-cyclopropyl-N-(tetrahydro-pyran-4-ylmethyl)-nicotinamide]	300 to 1000	> 50
O=C(NCC1CCOCC1)c1ccc(Nc2cccc(C(F)(F)F)c2)nc1C1CC1 [Example 125, 2-Cyclopropyl-N-(tetrahydro-pyran-4-ylmethyl)-6-(3-trifluoromethyl-phenylamino)-nicotinamide]	300 to 1000	> 50
O=C(NCC1CCOCC1)c1ccc(Nc2cccc(Br)c2)nc1C1CC1 [Example 126, 6-(3-Bromo-phenylamino)-2-cyclopropyl-N-(tetrahydro-pyran-4-ylmethyl)-nicotinamide]	300 to 1000	> 50
O=C(NCC1CCOCC1)c1ccc(Nc2cccc(OC(F)(F)F)c2)nc1C1CC1 [Example 127, 2-Cyclopropyl-N-(tetrahydro-pyran-4-ylmethyl)-6-(3-trifluoromethoxy-phenylamino)-nicotinamide]	300 to 1000	> 50
